Assay results taken from patent US10766879B2, “Pyrimidine derivatives as kinase inhibitors and their therapeutical applications” (NantBioScience, Inc., priority 2015, dated 2020).

Assays:
Alk kinase = biological target: T1, Alk kinase (Homo sapiens, UniProt Q9UM73); assay: KinaseProfiler kinase inhibition assay, Alk; type: biochemical; settings: 1 μM compound
T1 construct: purchased Millipore (KinaseProfiler Service)

Ret kinase = biological target: T2, Ret kinase (Homo sapiens, UniProt P07949); assay: KinaseProfiler kinase inhibition assay, Ret; type: biochemical; settings: 1 μM compound
T2 construct: purchased Millipore (KinaseProfiler Service)
T2 sequence (P07949 29-1114): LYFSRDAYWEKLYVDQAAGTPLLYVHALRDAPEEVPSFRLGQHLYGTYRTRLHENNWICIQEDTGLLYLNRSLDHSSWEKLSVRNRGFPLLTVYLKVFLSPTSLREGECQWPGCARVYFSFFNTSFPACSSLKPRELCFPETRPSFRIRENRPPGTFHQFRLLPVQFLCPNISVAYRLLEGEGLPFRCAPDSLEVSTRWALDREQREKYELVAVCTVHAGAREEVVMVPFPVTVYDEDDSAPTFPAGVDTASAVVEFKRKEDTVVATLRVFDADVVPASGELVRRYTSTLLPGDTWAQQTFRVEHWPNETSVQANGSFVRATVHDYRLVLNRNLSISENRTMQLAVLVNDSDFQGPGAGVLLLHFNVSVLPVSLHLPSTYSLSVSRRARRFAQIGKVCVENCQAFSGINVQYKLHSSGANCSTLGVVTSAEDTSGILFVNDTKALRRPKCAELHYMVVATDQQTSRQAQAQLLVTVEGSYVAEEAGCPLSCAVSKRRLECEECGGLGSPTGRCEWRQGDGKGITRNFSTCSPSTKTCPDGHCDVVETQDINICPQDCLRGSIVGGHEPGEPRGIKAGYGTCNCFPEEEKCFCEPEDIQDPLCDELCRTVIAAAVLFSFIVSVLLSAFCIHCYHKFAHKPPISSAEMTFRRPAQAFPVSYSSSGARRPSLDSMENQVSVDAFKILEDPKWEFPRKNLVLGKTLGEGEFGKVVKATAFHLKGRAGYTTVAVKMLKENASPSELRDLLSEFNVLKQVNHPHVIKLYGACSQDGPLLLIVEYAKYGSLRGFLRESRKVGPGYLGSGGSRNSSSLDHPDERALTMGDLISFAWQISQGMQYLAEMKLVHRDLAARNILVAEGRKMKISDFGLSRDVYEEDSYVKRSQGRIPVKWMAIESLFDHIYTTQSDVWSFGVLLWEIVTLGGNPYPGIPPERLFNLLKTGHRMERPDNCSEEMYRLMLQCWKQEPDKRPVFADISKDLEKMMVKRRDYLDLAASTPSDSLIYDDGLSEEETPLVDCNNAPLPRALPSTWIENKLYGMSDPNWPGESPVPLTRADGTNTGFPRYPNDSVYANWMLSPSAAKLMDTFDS

Kato III = assay: CellTiterblue viability, 72 hr, Kato III; type: cell-based; settings: Homo sapiens, Kato III cells
Description: (§1) A number of studies were performed to analyze the consequences of tyrosine kinase inhibition in cell lines. To do this, 1000 cells are seeded in 27 μl/well in 384-well microplates, which are then placed in a humidified CO2 incubator at 37° C. overnight. The next day, 3 μl/well of 10× concentrated drug is added and the plates are returned to the incubator for 72 hr. After 72 hr incubation, plates are removed and […] CellTiterblue (Promega) viability reagent is added. Plates are returned to the incubator for 3 hr, after which it is fluorescence measurements are read on the Victor X3 plate reader (Perkin Elmer). Data are analyzed using Excel (Microsoft), and GI50 values are determined using Prism (Graphpad).

KDR kinase = biological target: T3, KDR kinase (Homo sapiens, UniProt P35968); assay: KinaseProfiler kinase inhibition assay, KDR; type: biochemical; settings: 1 μM compound
T3 construct: purchased Millipore (KinaseProfiler Service)

c-Src kinase = biological target: T4, c-Src kinase (Homo sapiens, UniProt P12931); assay: KinaseProfiler kinase inhibition assay, c-Src; type: biochemical; settings: 1 μM compound; read-out: % Inhibition @1 μM cSrc
T4 construct: purchased Millipore (KinaseProfiler Service)

Tie2 = biological target: T5, Tie2 (Homo sapiens, UniProt Q02763); assay: KinaseProfiler kinase inhibition assay, Tie2; type: biochemical; settings: 1 μM compound
T5 construct: purchased Millipore (KinaseProfiler Service)

FGFR1 kinase = biological target: T6, FGFR1 kinase (Homo sapiens, UniProt P11362); assay: KinaseProfiler kinase inhibition assay, FGFR1; type: biochemical; settings: 1 μM compound
T6 construct: purchased Millipore (KinaseProfiler Service)
T6 sequence (P11362 22-822): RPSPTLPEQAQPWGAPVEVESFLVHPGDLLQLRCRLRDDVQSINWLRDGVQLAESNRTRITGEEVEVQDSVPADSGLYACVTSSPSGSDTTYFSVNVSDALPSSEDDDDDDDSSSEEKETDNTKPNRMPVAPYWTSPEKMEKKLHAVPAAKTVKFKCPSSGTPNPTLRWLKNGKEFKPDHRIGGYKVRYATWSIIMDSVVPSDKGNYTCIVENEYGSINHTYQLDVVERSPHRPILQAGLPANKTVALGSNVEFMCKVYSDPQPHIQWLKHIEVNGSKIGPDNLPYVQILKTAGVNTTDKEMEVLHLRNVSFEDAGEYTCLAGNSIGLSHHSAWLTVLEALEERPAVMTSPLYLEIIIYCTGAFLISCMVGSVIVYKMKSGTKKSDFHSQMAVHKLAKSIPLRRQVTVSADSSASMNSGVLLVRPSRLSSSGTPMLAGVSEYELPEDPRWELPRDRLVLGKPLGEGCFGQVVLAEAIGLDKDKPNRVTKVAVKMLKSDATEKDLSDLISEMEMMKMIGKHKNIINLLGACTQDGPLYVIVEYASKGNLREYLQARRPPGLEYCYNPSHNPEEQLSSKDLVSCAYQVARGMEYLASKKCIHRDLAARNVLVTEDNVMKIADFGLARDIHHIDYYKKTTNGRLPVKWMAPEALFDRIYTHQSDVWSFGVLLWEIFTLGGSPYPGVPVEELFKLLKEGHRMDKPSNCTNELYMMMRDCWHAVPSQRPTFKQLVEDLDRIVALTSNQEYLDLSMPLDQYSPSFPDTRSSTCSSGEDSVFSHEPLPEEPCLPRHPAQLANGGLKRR

MDA-MB134 = assay: CellTiterblue viability, 72 hr, MDA-MB134; type: cell-based; settings: MDA-MB134 cells
Description: as §1

AN3_CA = assay: CellTiterblue viability, 72 hr, AN3_CA; type: cell-based; settings: Homo sapiens, AN3-CA, AN3_CA cells
Description: as §1

KG1a = assay: CellTiterblue viability, 72 hr, KG1a; type: cell-based; settings: Homo sapiens, KG-1a, KG1a cells
Description: as §1

RT112 = assay: CellTiterblue viability, 72 hr, RT112; type: cell-based; settings: Homo sapiens, RT-112, RT112 cells
Description: as §1

Abl kinase = biological target: T7, Abl kinase (Homo sapiens, UniProt P00519); assay: KinaseProfiler kinase inhibition assay, Abl; type: biochemical; settings: 1 μM compound
T7 construct: purchased Millipore (KinaseProfiler Service)
T7 sequence (P00519 whole entry): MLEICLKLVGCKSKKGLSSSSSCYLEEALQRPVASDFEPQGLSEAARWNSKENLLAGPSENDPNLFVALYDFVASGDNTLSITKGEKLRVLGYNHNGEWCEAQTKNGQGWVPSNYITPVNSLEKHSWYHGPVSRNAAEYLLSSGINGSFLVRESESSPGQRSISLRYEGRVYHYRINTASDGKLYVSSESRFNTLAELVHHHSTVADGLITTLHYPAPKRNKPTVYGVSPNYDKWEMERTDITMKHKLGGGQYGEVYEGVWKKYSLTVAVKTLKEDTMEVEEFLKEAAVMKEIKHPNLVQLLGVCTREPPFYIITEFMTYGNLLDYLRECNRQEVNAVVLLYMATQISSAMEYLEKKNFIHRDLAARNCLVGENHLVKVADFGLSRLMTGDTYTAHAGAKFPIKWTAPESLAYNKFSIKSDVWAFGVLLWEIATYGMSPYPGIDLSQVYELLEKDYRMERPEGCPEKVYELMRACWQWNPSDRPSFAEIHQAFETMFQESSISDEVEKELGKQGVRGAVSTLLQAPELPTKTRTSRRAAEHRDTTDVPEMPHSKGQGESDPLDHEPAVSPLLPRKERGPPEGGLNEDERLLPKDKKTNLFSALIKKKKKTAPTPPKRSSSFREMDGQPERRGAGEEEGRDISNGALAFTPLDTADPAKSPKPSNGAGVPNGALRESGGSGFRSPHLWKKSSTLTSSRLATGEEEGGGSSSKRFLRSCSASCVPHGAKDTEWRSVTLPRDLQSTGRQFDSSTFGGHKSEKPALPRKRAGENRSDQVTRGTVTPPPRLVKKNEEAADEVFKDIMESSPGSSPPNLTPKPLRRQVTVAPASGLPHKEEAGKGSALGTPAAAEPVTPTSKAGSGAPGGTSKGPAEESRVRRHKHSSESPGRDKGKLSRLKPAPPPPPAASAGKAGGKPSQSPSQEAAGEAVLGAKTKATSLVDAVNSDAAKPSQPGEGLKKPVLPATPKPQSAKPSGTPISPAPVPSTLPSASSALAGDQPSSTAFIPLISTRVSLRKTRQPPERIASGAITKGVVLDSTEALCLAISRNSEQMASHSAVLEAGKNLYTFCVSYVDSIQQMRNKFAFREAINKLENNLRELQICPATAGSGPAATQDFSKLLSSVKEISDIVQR

T1 sequence (Q9UM73 19-1620): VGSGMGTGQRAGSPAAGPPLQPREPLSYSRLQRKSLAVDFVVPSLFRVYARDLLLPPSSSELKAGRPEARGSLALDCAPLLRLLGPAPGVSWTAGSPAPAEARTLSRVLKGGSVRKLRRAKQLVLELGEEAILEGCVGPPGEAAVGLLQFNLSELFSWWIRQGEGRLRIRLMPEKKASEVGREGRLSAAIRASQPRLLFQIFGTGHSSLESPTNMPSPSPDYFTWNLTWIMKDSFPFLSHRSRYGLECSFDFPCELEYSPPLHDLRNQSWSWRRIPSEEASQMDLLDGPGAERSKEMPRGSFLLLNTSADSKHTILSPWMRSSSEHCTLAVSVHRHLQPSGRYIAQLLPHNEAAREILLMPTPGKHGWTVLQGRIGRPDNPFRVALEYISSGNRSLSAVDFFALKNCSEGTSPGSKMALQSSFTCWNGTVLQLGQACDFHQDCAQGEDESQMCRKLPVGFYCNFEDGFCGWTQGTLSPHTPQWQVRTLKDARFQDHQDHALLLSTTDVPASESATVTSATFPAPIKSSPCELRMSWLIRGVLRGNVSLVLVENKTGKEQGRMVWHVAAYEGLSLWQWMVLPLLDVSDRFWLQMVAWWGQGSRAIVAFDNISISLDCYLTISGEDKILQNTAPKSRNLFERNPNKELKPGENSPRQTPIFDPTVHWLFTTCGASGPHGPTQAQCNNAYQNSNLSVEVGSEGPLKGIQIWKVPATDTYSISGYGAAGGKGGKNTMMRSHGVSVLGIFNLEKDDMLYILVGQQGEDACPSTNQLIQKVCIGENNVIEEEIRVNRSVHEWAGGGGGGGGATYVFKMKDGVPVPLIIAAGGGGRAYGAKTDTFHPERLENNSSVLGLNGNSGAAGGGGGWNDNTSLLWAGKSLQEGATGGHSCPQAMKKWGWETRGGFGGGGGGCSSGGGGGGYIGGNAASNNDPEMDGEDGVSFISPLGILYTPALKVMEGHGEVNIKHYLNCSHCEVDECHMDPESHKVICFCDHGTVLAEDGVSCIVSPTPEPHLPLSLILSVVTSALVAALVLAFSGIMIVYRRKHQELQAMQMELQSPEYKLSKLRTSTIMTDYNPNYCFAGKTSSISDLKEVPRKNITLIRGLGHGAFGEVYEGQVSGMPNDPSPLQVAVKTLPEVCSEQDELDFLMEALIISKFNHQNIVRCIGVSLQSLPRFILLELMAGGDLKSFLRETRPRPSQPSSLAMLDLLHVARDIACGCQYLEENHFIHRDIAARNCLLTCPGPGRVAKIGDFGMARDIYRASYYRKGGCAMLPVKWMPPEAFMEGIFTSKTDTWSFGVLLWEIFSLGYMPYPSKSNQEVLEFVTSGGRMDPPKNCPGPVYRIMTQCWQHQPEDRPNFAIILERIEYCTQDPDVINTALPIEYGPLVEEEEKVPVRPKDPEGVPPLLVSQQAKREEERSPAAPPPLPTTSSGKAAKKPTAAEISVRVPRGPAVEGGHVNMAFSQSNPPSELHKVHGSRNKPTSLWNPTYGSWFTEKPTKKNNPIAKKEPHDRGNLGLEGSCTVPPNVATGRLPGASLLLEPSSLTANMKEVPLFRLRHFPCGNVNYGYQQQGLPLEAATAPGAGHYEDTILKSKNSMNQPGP

inhibition at 1 µM (Alk kinase) [%] | inhibition at 1 µM (Ret kinase) [%] | inhibition at 1 µM (KDR kinase) [%] | inhibition at 1 µM (c-Src kinase) [%] | inhibition at 1 µM (Tie2) [%] | inhibition at 1 µM (FGFR1 kinase) [%] | GI50 (MDA-MB134) [nM] | inhibition at 1 µM (Abl kinase) [%] | Compound | GI50 (Kato III) [nM] | GI50 (AN3_CA) [nM] | GI50 (KG1a) [nM] | GI50 (RT112) [nM]
-3 | -41 | 10 | 1 | 13 | 91 | 282 | 3 | CCN1CCN(c2ccc(Nc3ncnc(Oc4ccc5c(cc(C)n5C)c4F)c3F)cc2)CC1 [Compound 63] | > 500 | > 500 | > 500 | > 500
-23 | -48 | 91 | 10 | 31 | 99 | 78 | 2 | CCN1CCN(c2ccc(Nc3ncnc(Oc4ccc5[nH]c(C)cc5c4F)c3C#N)nc2)CC1 [Compound 55] | 319 | 98 | 7 | > 500
-34 | -43 | 5 | 12 | 14 | 54 | 254 | -13 | Cc1cc2c(F)c(Oc3ncnc(Nc4ccc(N5CCN(C)CC5)cc4)c3N)ccc2[nH]1 [Compound 46] | > 500 | > 500 | > 500 | > 500
68 | -17 | 96 | 16 | -11 | 46 | – | 7 | CC(=O)N1CCN(c2ccc(Nc3ncnc(Oc4ccc5[nH]c(C)cc5c4F)c3F)cc2)CC1 [Example 26] | > 500 | > 500 | – | –
3 | -42 | 93 | 3 | 24 | 100 | 18 | -7 | CCN1CCN(c2ccc(Nc3ncnc(Oc4cc(F)c5[nH]c(C)cc5c4F)c3C#N)cc2)CC1 [Compound 60] | 26 | > 500 | 5 | 47
-5 | 48 | 89 | 8 | 13 | 59 | – | 18 | CCOC(=O)c1cc(Nc2cc(Oc3ccc4[nH]c(C)cc4c3F)ncn2)n[nH]1 [Example 19] | – | > 500 | – | –
61 | -16 | 98 | 14 | 4 | 96 | – | 8 | CC(=O)Nc1ccc(Nc2cc(Oc3ccc4[nH]c(C)cc4c3F)ncn2)cc1 [Example 7] | > 500 | > 500 | – | –
-41 | -13 | 51 | -9 | 23 | 100 | 28 | 3 | CCN1CCN(c2ccc(Nc3ncnc(Oc4cc(F)c5[nH]c(C)cc5c4F)c3C#N)nc2)CC1 [Compound 61] | 77 | > 500 | 4 | 11
35 | -46 | 79 | 11 | -2 | 85 | – | 4 | Cc1cc2c(F)c(Oc3ncnc(Nc4ccc(N5CCN(C)CC5)cn4)c3F)ccc2[nH]1 [Example 27] | > 500 | > 500 | – | –
-23 | -46 | 12 | -2 | 13 | 91 | 430 | 2 | Cc1cc2c(F)c(Oc3ncnc(Nc4ccc(N5CCN(C)CC5)cc4)c3C)ccc2[nH]1 [Compound 40] | > 500 | > 500 | > 500 | > 500
70 | 35 | 96 | 20 | 24 | 75 | – | 21 | Cc1cc2c(F)c(Oc3cc(Nc4ccc(N5CCOCC5)cc4)ncn3)ccc2[nH]1 [Example 9] | > 500 | > 500 | – | –
-43 | -22 | 20 | 2 | 19 | 96 | > 500 | -15 | Cc1cc2c(F)c(Oc3ncnc(Nc4ccc(N5CCN(C)CC5)cc4)c3Cl)ccc2[nH]1 [Compound 35, 5-chloro-6-((4-fluoro-2-methyl-1H-indol-5-yl)oxy)-N-(4-(4-methylpiperazin-1-yl)phenyl)pyrimidin-4-amine] | > 500 | > 500 | > 500 | > 500
-48 | -29 | 70 | 15 | 33 | 92 | > 500 | -7 | CCN1CCN(c2ccc(Nc3ncnc(Oc4ccc5[nH]c(C)cc5c4F)c3F)nc2)CC1 [Example 29, N-(5-(4-ethylpiperazin-1-yl)pyridin-2-yl)-5-fluoro-6-((4-fluoro-2-methyl-1H-indol-5-yl)oxy)pyrimidin-4-amine] | > 500 | > 500 | – | –
15 | 68 | 92 | 21 | 48 | 87 | – | 45 | Cc1cc2c(F)c(Oc3cc(Nc4ccccn4)ncn3)ccc2[nH]1 [Example 18] | – | > 500 | – | –
62 | -15 | 97 | 17 | -7 | 96 | – | 12 | Cc1cc2c(F)c(Oc3ncnc(Nc4ccc(N5CCNCC5)cc4)c3F)ccc2[nH]1 [Example 28] | > 500 | > 500 | – | –
63 | 36 | 97 | 58 | 48 | 89 | – | 36 | CC(=O)N1CCN(c2ccc(Nc3cc(Oc4cc(F)c5[nH]c(C)cc5c4F)ncn3)cc2)CC1 [Compound 50] | 348 | > 500 | – | –
60 | 21 | 98 | 30 | 20 | 89 | – | 18 | CNC(=O)c1ccc(Nc2cc(Oc3ccc4[nH]c(C)cc4c3F)ncn2)cc1 [Example 12] | > 500 | > 500 | – | –
53 | 27 | 98 | 36 | 30 | 59 | – | 23 | Cc1cc2c(F)c(Oc3cc(Nc4cc(-c5ccccc5)[nH]n4)ncn3)ccc2[nH]1 [Example 4] | – | > 500 | – | –
60 | 61 | 98 | 32 | 70 | 98 | – | 41 | Cc1cc2c(F)c(Oc3cc(Nc4cccc(N5CCN(C)CC5)c4)ncn3)ccc2[nH]1 [Example 13] | 170 | > 500 | – | –
38 | -12 | 96 | 11 | -6 | 97 | – | 0 | Cc1cc2c(F)c(Oc3ncnc(Nc4ccc(N5CCN(C)CC5)cc4)c3F)ccc2[nH]1 [Example 24] | 386 | > 500 | – | –
60 | 22 | 98 | 15 | 2 | 97 | – | 11 | Cc1cc2c(F)c(Oc3cc(Nc4cccc(N5CCOCC5)c4)ncn3)ccc2[nH]1 [Example 8] | > 500 | > 500 | – | –
